Source: patent US20240156723A1, “DEPOT COMPOSITIONS FOR VESICULAR MONOAMINE TRANSPORTER 2 (VMAT2) INHBITORS” (Foresee Pharmaceuticals Co., Ltd., priority 2022, published 2024)
Each block holds one compound with its values, some of them ahead of it.

Assays:
[1] = particle size distribution by laser diffraction (Mastersizer 3000); format: physicochemical; details: re-dispersed in 0.2% Tween 20 deionized water
Method: (§1) Briefly, 10 mg/mL (+)-TBZ or (±)-d6-TBZ recrystallized crystal was re-dispersed in 0.2% Tween 20 deionized water with a rigorous vortex. The microscopy was conducted using the optical microscope Leica DMi8, with 100-fold magnification. The PSD was measured using laser diffraction method, with Mastersizer 3000 (Malvern, UK). Before particle sizing, the 10 mg/mL (+)-TBZ crystal was re-dispersed in 0.2% Tween 20 deionized water and sonicated for ˜10 sec.
as §1, with “(+)-TBZ” for “(+)-TBZ or (±)-d6-TBZ”
Four grams of raw (+)-TBZ crystals were jet milled in a 20 mm milling chamber at room temperature (Micromacinazione, Switzerland). Briefly, the jet mill was connected to high pressure nitrogen for providing the pneumatic forces. The grinding pressure and feeding pressure are set on 2.5 bar and 5 bar, respectively. The feeding rate of raw (+)-TBZ crystal was 1.6 g/m in. The fine (+)-TBZ powder was collected by the cyclone and recovered in a vial. The yield was ˜80%. The PSD was characterized using laser diffraction method, with Mastersizer 3000 (Malvern, UK). Before particle sizing, the 10 mg/mL (+)-TBZ crystal was re-dispersed in 0.2% Tween 20 deionized water and sonicated for ˜10 sec. […]
Four grams of raw cholesterol crystals (Nippon fine chemical, Japan) was jet milled in a 20 mm milling chamber at room temperature (Micromacinazione, Switzerland). The jet mill was connected to high pressure nitrogen for providing the pneumatic forces. The grinding pressure and feeding pressure are set on 2.5 bar and 5 bar, respectively. The feeding rate of raw cholesterol crystal was 1.6 g/m in. The fine CSTR powder was collected by the cyclone and recovered in a vial. The yield was ˜80%. The PSD was characterized using laser diffraction method, with Mastersizer 3000 (Malvern, UK). Before particle sizing, the 10 mg/mL CSTR crystal was re-dispersed in 0.2% Tween 20 deionized water and sonicated for ˜10 sec.
The spray drying was conducted with Mini Spray Dryer B-290, (Buchi, Switzerland). First, 10 grams of raw cholesterol crystal was dissolved in 300 mL isopropanol (IPA) with 35-40° C. heating to obtain a clear solution. The spray drying was conducted at a flow rate of 12.5 ml/min and completed in 2 hours. The fine CSTR particles were collected by the cyclone and recovered in a vial. The yield was about 80%. […] Briefly, 10 mg/mL SPD CSTR was re-dispersed in 0.2% Tween 20 deionized water with a rigorous vortex. The microscopy was conducted using the optical microscope Leica DMi8, with 100-fold magnification. The PSD was characterized using laser diffraction method, with Mastersizer 3000 (Malvern, UK) and the results are shown in Table 12. Before particle sizing, the 10 mg/mL SPD CSTR was re-dispersed in 0.2% Tween 20 deionized water and sonicated for ˜10 sec. […]
4 grams of raw (+)-α-DHTBZ crystals (Wuxi Pharma, China) were jet milled in a 20 mm milling chamber at room temperature (Micromacinazione, Switzerland). Briefly, the jet mill was connected to high pressure nitrogen for providing pneumatic forces, with grinding pressure and feeding pressure set at 4 and 5 bars, respectively. The feeding rate of raw (+)-α-DHTBZ crystals was 1.6 g/m in. Fine milled (+)-α-DHTBZ crystals were collected by the cyclone and recovered in a vial. The yield was ˜80%. The PSD of jet-milled (+)-α-DHTBZ was characterized using laser diffraction method, with Mastersizer 3000 (Malvern, UK). Before particle sizing, the 10 mg jet milled (+)-α-DHTBZ was re-dispersed in 1 mL of 0.2% Tween-20 deionized water and sonicated for ˜10 sec.

solubility in heptane = format: physicochemical; details: room temperature
[2] = cited from earlier work
dopamine D2 = dopamine D2 (Homo sapiens, UniProt P14416); details: dopamine D2 receptor; read-out: off-target binding affinity to dopamine D2; cited from earlier work
[3] = molecular target: serotonin 5-HT7 receptors (Homo sapiens, UniProt P34969); details: serotonin 5-HT7 receptor; read-out: off-target binding affinity to serotonin 5-HT7; cited from earlier work
[4] = listed as 3 g rex (+)-TBZ-1 iii

Sequence of dopamine D2 (P14416 whole entry): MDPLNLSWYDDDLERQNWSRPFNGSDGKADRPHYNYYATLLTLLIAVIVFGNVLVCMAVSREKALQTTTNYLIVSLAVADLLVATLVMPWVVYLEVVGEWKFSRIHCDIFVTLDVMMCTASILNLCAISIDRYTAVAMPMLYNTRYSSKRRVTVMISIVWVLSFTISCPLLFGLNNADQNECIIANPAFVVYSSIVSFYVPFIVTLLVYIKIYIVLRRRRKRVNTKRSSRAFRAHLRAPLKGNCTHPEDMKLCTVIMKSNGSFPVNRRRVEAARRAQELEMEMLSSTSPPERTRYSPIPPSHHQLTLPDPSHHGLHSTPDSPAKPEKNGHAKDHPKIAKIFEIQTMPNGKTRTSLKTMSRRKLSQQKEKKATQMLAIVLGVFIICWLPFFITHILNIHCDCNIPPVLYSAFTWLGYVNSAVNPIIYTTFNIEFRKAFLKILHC
Sequence of serotonin 5-HT7 receptors (P34969 whole entry): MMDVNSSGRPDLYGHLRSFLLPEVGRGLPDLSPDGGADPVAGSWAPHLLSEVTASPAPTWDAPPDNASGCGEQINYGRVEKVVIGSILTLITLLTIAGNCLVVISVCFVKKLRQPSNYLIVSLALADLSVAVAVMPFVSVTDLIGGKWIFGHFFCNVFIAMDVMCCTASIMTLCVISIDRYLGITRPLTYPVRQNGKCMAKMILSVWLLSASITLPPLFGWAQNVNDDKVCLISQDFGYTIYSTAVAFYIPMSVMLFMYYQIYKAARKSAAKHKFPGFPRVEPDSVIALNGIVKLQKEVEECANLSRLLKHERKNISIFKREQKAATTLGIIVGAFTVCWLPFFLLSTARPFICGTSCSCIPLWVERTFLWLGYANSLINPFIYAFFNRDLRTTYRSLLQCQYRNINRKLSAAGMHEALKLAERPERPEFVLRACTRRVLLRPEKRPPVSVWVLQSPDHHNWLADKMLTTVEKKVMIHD

Compound: COc1cc2c(cc1OC)[C@H]1CC(=O)[C@H](CC(C)C)CN1CC2 [(+)-TBZ, (3R,11bR)-tetrabenazine]
D10 (μm) ([1]; listed as 3 g rex (+)-TBZ-1 i): 17.3 μm
D50 (μm) ([1]; listed as 3 g rex (+)-TBZ-1 i): 38.5 μm
D90 (μm) ([1]; listed as 3 g rex (+)-TBZ-1 i): 75.0 μm
D10 (μm) ([1]; listed as 3 g rex (+)-TBZ-1 ii): 22.0 μm
D50 (μm) ([1]; listed as 3 g rex (+)-TBZ-1 ii): 45.9 μm
D90 (μm) ([1]; listed as 3 g rex (+)-TBZ-1 ii): 85.7 μm
D10 (μm) [1, 4]: 16.6 μm
D50 (μm) [1, 4]: 33.7 μm
D90 (μm) [1, 4]: 60.7 μm
D10 (μm) ([1]; listed as 12 g rex (+)-TBZ i): 15.9 μm
D50 (μm) ([1]; listed as 12 g rex (+)-TBZ i): 34.9 μm
D90 (μm) ([1]; listed as 12 g rex (+)-TBZ i): 65.8 μm
D10 (μm) ([1]; listed as 12 g rex (+)-TBZ ii): 17.7 μm
D50 (μm) ([1]; listed as 12 g rex (+)-TBZ ii): 40.8 μm
D90 (μm) ([1]; listed as 12 g rex (+)-TBZ ii): 80.4 μm
D10 (μm) ([1]; listed as 12 g rex (+)-TBZ iii): 16.7 μm
D50 (μm) ([1]; listed as 12 g rex (+)-TBZ iii): 38 μm
D90 (μm) ([1]; listed as 12 g rex (+)-TBZ iii): 76 μm
D10 (μm) ([1]; listed as Jet milled (+)-TBZ): 2.5 μm
D50 (μm) ([1]; listed as Jet milled (+)-TBZ): 5.2 μm
D90 (μm) ([1]; listed as Jet milled (+)-TBZ): 11.8 μm
D10 (μm) ([1]; listed as Raw (+)-TBZ): 14.3 μm
D50 (μm) ([1]; listed as Raw (+)-TBZ): 66.5 μm
D90 (μm) ([1]; listed as Raw (+)-TBZ): 184 μm
solubility in heptane (solubility in heptane): < 0.4 % by weight

Compound: COc1cc2c(cc1OC)[C@H]1C[C@@H](OC(=O)[C@@H](N)C(C)C)[C@H](CC(C)C)CN1CC2 [VBZ, L-Valine, (2R,3R,11bR)-1,3,4,6,7,11b-hexahydro-9,10-dimethoxy-3-(2-methylpropyI)-2H-benzo[a]quinolizin-2-yl ester]
oral bioavailability [2]: ~50%

Compound: [−]-β-dihydrotetrabenazine [(−)-(β)-DHTBZ]
Ki (dopamine D2): 53 nM
Ki [3]: 5.9 nM

Compound: COc1cc2c(cc1OC)[C@H]1C[C@@H](O)[C@H](CC(C)C)CN1CC2 [(−)-(α)-DHTBZ, [−]-α-dihydrotetrabenazine]
Ki (dopamine D2): 180 nM
Ki [3]: 71 nM

Compound: COc1cc2c(cc1OC)C1CC(=O)C(CC(C)C)CN1CC2 (racemic) [TBZ, 1,3,4,6,7,11b-hexahydro-9,10-dimethoxy-3-(2-methoxylrpopryl)-2H-benzo(a)quinoline-2-one, reference compound]
D10 (μm) [1]: 4.2 μm
D50 (μm) [1]: 9.2 μm
D90 (μm) [1]: 20.1 μm
oral bioavailability [2]: 17%

Other lines, results leading:

D10 (μm) [1]: 12.3 μm
D50 (μm) [1]: 25.6 μm
D90 (μm) [1]: 45.4 μm
Compound: (RR, SS)-1,3,4,6,7,11b-hexahydro-9, 10-di(methoxy-d3)-3-(2-methylpropyl) 2H-benzo[a]quinolizin-2-one [(±)-d6-TBZ, reference compound]

D50 (μm) [1]: 27.3 μm
D10 (μm) ([1]; listed as Jet milled CSTR): 0.3 μm
D50 (μm) ([1]; listed as Jet milled CSTR): 4.6 μm
D90 (μm) ([1]; listed as Jet milled CSTR): 12 μm
D10 (μm) ([1]; listed as Raw CSTR): 14.1 μm
D50 (μm) ([1]; listed as Raw CSTR): 27.3 μm
D90 (μm) ([1]; listed as Raw CSTR): 48 μm
D10 (μm) ([1]; listed as Spray dried CSTR): 0.2 μm
D50 (μm) ([1]; listed as Spray dried CSTR): 2.0 μm
D90 (μm) ([1]; listed as Spray dried CSTR): 5.0 μm
solubility in heptane (solubility in heptane): > 10 % by weight
Compound: CC(C)CCC[C@@H](C)[C@H]1CC[C@H]2[C@@H]3CC=C4C[C@@H](O)CC[C@]4(C)[C@H]3CC[C@]12C [cholesterol]

D10 (μm) [1]: 5 μm
D50 (μm) [1]: 13 μm
D90 (μm) [1]: 40 μm
Compound: COc1cc2c(cc1OC)C1CC(O)C(CC(C)C)CN1CC2 (single isomer, unassigned; (+)) [(+)-(α)-DHTBZ, [+]-α-dihydrotetrabenazine]
